Entries after “also recorded” stand apart in the source; their conditions may differ. Where two headings read alike, the source gives them in different places.
Columns and labels:
[1] = cited from earlier work
[2] = system: serotonergic presynaptic markers; settings: primate study; cited from earlier work
[3] = mouse; cited from earlier work
[4] = Human Equivalent Dose (HED) of NOAEL; settings: for Human Equivalent Dose (HED): NOAEL (human), total dose / Human Equivalent Dose (HED): Neurotoxicology NOAEL (human), total dose: assuming a 60 kg human; for NOAEL: human, po
[5] = cited from earlier work; remark: listed apart in the source
[6] = dog, female and male, p.o.; cited from earlier work
[7] = rat, cited from earlier work
[8] = dog, p.o.; cited from earlier work
[9] = p.o. in rat (SR(±)MDMA: with single housing); cited from earlier work
[10] = Subjective report: physiological and subjective effects after oral administration (Subject A); type: in vivo, human
Experimental: To determine the physiological and subjective effects of the hydrochloride salt of R-MDMA (oral administration, 250 (±) 10 mg), supplemented with acetyl-L-carnitine (ALCAR), alpha lipoic acid (ALA), ascorbate to reduce or prevent neurotoxicity.
2.2 g of racemic MDMA was obtained and dissolved in methanol at a stock concentration of 10 mg/mL. A ChiralPak Ad-H column (150×4.6 mm, 5 μm particle size) was flushed with mobile phase solution on an Agilent 1260 machine with a variable UV-Vis detector and 10 uL of the final concentrated solution (1:100) was injected on a 35 min run cycle. Due to the preliminary nature of the testing, no further characterization was done. The laevo-rich form was the first eluted. It was collected and roto-evaporated into solid form and then dried over magnesium pellets. The product, when dried and washed thoroughly, was sent out for anonymized 1H-NMR testing to determine identity.
Vitals were taken hourly, and were taken four times between hours two and three. Heart rate rose for a short period to 115-125 from 85 resting.
MDMA enantiomers were recombined in a 9:1 ratio through crystallization and washing.

[11] = cited from earlier work; for Fear behavior during the fear extinction session: during extinction training; for Conditioned fear when retention of extinction was assessed: the following day
[12] = No adverse effect level (NOAEL) in rat, p.o.; settings: in vivo, po
[13] = Maximum Recommended Starting Dose (MRSD) and doses tested in humans; settings: expected value
[14] = biological target: CYP2C19 (Homo sapiens, UniProt P33261); settings: cited from earlier work
Sequence of CYP2C19 (P33261 whole entry): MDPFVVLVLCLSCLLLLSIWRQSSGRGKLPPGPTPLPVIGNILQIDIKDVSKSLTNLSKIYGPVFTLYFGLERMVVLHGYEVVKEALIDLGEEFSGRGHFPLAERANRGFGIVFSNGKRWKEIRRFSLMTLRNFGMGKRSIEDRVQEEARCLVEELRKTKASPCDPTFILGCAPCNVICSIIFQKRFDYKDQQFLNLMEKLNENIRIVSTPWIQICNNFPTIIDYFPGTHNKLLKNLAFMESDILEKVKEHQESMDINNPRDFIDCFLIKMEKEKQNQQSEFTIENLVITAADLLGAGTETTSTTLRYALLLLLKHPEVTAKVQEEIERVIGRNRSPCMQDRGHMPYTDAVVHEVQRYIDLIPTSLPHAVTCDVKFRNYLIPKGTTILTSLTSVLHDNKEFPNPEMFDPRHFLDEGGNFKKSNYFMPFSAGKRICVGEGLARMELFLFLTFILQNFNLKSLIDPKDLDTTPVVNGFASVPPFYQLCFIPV

[15] = biological target: CYP2D6 (Homo sapiens, UniProt P10635); settings: cited from earlier work
Sequence of CYP2D6 (P10635 whole entry): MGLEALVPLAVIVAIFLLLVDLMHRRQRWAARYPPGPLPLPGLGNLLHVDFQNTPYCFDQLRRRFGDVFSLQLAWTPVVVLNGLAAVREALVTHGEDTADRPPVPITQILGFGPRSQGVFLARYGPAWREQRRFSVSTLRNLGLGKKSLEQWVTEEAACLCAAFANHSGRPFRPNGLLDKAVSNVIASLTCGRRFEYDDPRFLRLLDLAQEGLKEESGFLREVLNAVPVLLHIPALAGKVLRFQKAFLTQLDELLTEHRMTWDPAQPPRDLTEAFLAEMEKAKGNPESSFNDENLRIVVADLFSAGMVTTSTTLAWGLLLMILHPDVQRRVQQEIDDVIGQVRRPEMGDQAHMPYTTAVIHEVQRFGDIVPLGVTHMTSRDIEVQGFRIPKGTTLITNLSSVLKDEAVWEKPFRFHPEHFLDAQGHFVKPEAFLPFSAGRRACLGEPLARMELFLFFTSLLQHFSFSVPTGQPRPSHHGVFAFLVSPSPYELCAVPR

[16] = 100 mg, healthy volunteers, brain imaging studies

CNC(C)Cc1ccc2c(c1)OCO2 (stereo not drawn) [MDMA, 3,4-methylenedioxymethamphetamine]
Elimination half-life ([1]; doses ranging from 50-125 mg): 7 to 9 h
Time to peak plasma concentration ([1]; humans, doses 100-125 mg): 2 to 3 h
Serotonergic presynaptic markers [2]: profound reductions in all three serotonergic presynaptic markers
Critical period peak [3]: 40 h
Critical period starts to open, time after the acute dose [3]: about six
Human Equivalent Dose (HED): NOAEL (human) ([4]; 9:1 R:S MDMA: expected, p.o.): 34 mg/kg →
Human Equivalent Dose (HED): Neurotoxicology NOAEL (human) ([4]; 9:1 R:S MDMA: i.v.): NOAEL (human): 6 mg/kg
Human Equivalent Dose (HED): NOAEL (human), total dose ([4]; 9:1 R:S MDMA: expected, p.o.): 2080 mg
Human Equivalent Dose (HED): Neurotoxicology NOAEL (human), total dose ([4]; 9:1 R:S MDMA: i.v.): 342.9 mg*
Duration of subjective effects [5, 16]: approximately 4.5 hours
Time of peak subjective effects [5, 16]: 100 min
Duration of effects ([5]; patients with PTSD receiving one dose): 4 to 5 h
Onset of action after the initial dose ([5]; patients with PTSD, 100-125 mg): 45 to 75 min
Time of peak drug effects ([5]; patients with PTSD, 100-125 mg): 2 to 5 h
Duration of effects ([5]; patients with PTSD, with the booster dose): 5 to 6 h
Decrease of subjective effects to baseline values ([5]; prior study (Harris et al.)): 5 to 6 h
Onset of subjective effects ([5]; prior study (Harris et al.)): approximately 45 mins
Peak of subjective effects ([5]; prior study (Harris et al.)): 1.5 to 2 h
Neurotoxicology NOAEL [6]: 4 mg/kg/week p.o
Neurotoxicology NOAEL ([7]; female, p.o.): 25 mg/kg/week p.o1
Neurotoxicology NOAEL ([7]; male, p.o.): 20 mg/kg/week p.o1.
No adverse effect level (NOAEL) [8]: NOAEL: 15 mg/kg in
No adverse effect level (NOAEL) [9]: NOAEL: 100 mg/kg

CN[C@H](C)Cc1ccc2c(c1)OCO2 [R-MDMA, (R)-1-(1,3-Benzodioxol-5-yl)-N-methylpropan-2-amine]
AUC in comparison to S-MDMA ([1]; in vivo): increased AUC
Half-life in comparison to S-MDMA ([1]; in vivo): longer half-life
Duration of the whole experience ([10]; R-MDMA HCl 250 (±) 10 mg oral): approximately 7 hours
Peak of the experience, time after ingestion ([10]; R-MDMA HCl 250 (±) 10 mg oral): around two
Start of come-down ([10]; R-MDMA HCl 250 (±) 10 mg oral): ~4 h
Start of noticeable effects off-baseline ([10]; R-MDMA HCl 250 (±) 10 mg oral): around 40 minutes
Blood pressure ([10]; R-MDMA HCl 250 (±) 10 mg oral, monitor of low precision, result inconclusive): increased for a short period
Hyperthermia or hypothermia ([10]; single oral dose, Subject A): No noticeable hyperthermia or hypothermia
Jaw clenching ([10]; single oral dose, Subject A): No incidence of jaw clenching
Stimulant effects compared with racemic MDMA ([10]; single oral dose, Subject A): almost entirely absent; also recorded: reduction in stimulation
Heart rate ([10]; single oral dose, Subject A, R-MDMA HCl 250 (±) 10 mg with supplements (rise from 85 resting), 9:1 R:S MDMA 230-240 mg): 115-125
Human Equivalent Dose (HED): NOAEL (human), total dose ([4]; 9:1 R:S MDMA: expected, p.o.): mg/kg → >4100
Human Equivalent Dose (HED): Neurotoxicology NOAEL (human), total dose ([4]; 9:1 R:S MDMA: i.v.): 450 mg*
NOAEL [4]: > 68 mg/kg
Fear behavior during the fear extinction session [11]: did not reduce fear behavior
Conditioned fear when retention of extinction was assessed [11]: significantly reduced conditioned fear
Neurotoxicology NOAEL ([7]; i.v.): 50 mg/kg i.v2
No adverse effect level (NOAEL) [9]: NOAEL: >200 mg/kg

CN[C@@H](C)Cc1ccc2c(c1)OCO2 [S-MDMA, (S)-1-(1,3-Benzodioxol-5-yl)-N-methylpropan-2-amine]
NOAEL [12]: < 100 mg/kg
Expected MSRD [13]: 150 mg
Metabolism by CYP2C19, enantiomer preference [14]: preferentially metabolizes
Human Equivalent Dose (HED): NOAEL (human), total dose ([4]; 9:1 R:S MDMA: expected, p.o.): mg/kg → <2080
Human Equivalent Dose (HED): Neurotoxicology NOAEL (human), total dose ([4]; 9:1 R:S MDMA: i.v.): 342.9 mg*
NOAEL [4]: < 34 mg/kg
Affinity for CYP2D6 compared with the other enantiomer [15]: higher affinity
Fear behavior during the fear extinction session [11]: reduced conditioned fear behavior
Conditioned fear when retention of extinction was assessed [11]: a reduction thereof was not observed
Neurotoxicology NOAEL ([7]; i.v.): 20 mg/kg i.v2,3
